Results as given in US9458179B2, “Quinuclidine, 1-azabicyclo[2.2.1]heptane, 1-azabicyclo [3.2.1]octane, and 1-azabicyclo[3.2.2]nonane compounds as alpha-7 nicotinic acetylcholine receptor ligands” (BRISTOL-MYERS SQUIBB COMPANY, priority 2012, dated 2016).

biological target: T1, α-7 nicotinic ACh receptor ion channel (Rattus norvegicus, UniProt Q05941); experiment: Ca2+-sensitive fluorescence-based FLIPR assay of α7 nicotinic receptor channel function (agonist activity); format: cell-based; details: FLIPR α7-HI (EC50, nM), HEK 293 cells, Ca2+ flux; Table 1, activity class
T1 construct: expressed in transfected cells
Experimental: II) A Ca^2+-Sensitive, Fluorescence-Based Assay α-7 for Nicotinic Acetylcholine Receptor Channel Function in Mammalian Cells (“FLIPR”).
Lead compounds are evaluated for agonist activity at α-7, α3β4, α4αβ2, and α1β1δ1ε sub-types of nicotinic ACh receptor ion channels expressed in mammalian HEK 293 cells. Agonist potency and efficacy values are determined from kinetic fluorescence Ca^2+ influx measurements made using a 384 well FLIPR (Fluorescence Image Plate Reader). […] In this assay, channel expressing HEK cell lines seeded in 384 well assay plates are loaded with a membrane permeant fluorescent Ca^2+ indicator dye, whose 510 nm green emission signal increases in response to elevation of intracellular Ca^2+ concentration. The basal fluorescence from the cells is monitored in real time, followed by the acute addition of test compounds.
Reagents: The acetomethoxy (AM) ester of the Ca^2+ indicator dye Fluo-4 was obtained from InVitrogen, (Carlsbad, Calif.). Acetylcholine and all buffer constituents were purchased from Sigma Chemical Company, St. Louis, Mo. G418 and Minimal Essential Medium were purchased from InVitrogen Life Technologies, Carlsbad, Calif. Fetal bovine serum was purchased from (InVitrogen, Carlsbad, Calif.).
HEK-293 cells were grown in Minimal Essential Medium containing 10% (v/v) fetal bovine serum at 37° C. in a 5% CO2 incubator. HEK-293 cells stably expressing the ion channels were grown in the same medium with the addition of 500 μg/ml G418.
HEK-293 cells expressing the ion channels of interest were plated in 384 well, black-walled, clear-bottomed, poly-D-lysine coated plates at a density of ˜20,000 cells/well in 20 μl of Minimal Essential Medium containing 10% (v/v) fetal bovine serum and incubated for 2 days at 29° C. in a 5% CO2 incubator. Prior to assay, cells were loaded with the Fluo-4 AM ester. […] Dye loading was allowed to proceed for 90 minutes at room temperature at which time the dye loading solution was removed and replaced with 40 μl/well of Hanks buffer. Cells loaded with dye were loaded onto a FLIPR384 (Molecular Devices, Sunnyvale, Calif.). […] Emission was filtered using a 540+/−30 nm bandpass filter. For evaluation of the effects of test compounds using the Ca^2+ flux assay, compounds to be tested were provided in assay ready plates. For nicotinic receptor ion channel expressing cells, the assay was initiated by the addition of 20 μl/well of Hanks buffer containing test compounds. For all assays, data were collected at 1 Hz for 10 seconds (baseline), at which time the compound containing stimulus buffers are added, and further measurements collected at 0.33 Hz for 3 min.
The statistical robustness of the nicotinic receptor Ca^2+ flux assays is determined from blanks and totals wells. […] The raw fluorescence units data files generated on the FLIPR plate reader are automatically exported and processed by in-house data analysis tools. The reduced percent activation data for each concentration of test compound are fit using MathIQ fitting engine (ID Business Solutions Limited, Surrey, UK). Data were analyzed by fitting maximum amplitudes of change in fluorescence, for Ca^2+ flux for a given condition of test compound. […] Test compound efficacy values (Ymax values) are expressed relative to a maximal response to acetylcholine in the total wells.

T1 sequence (Q05941 23-502): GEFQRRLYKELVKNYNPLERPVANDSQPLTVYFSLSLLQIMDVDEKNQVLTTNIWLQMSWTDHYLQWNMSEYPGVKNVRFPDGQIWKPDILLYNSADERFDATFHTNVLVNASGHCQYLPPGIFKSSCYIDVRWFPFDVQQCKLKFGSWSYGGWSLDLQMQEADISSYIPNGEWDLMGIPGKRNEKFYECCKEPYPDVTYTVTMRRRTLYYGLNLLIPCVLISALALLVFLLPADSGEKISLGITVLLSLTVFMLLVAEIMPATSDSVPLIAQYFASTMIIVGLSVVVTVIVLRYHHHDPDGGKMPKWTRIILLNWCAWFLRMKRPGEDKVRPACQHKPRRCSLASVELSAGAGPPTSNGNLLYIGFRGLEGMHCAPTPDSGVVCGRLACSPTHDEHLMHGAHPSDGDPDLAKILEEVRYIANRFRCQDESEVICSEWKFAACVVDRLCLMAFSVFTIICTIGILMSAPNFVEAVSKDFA

**Q.** For `Clc1ccc2oc(NC3=NCC4(CN5CCC4CC5)N3)nc2c1` (stereo not drawn) [Example 57], which EC50 is on record?
**A.** 100 to 1000 nM

**Q.** For `CN1C(Nc2nc3cc(Cl)ccc3o2)=NCC12CN1CCC2CC1` (stereo not drawn) [Example 58], which EC50 is on record?
**A.** 100 to 1000 nM

**Q.** For `c1ccc2oc(NC3=NCC4(CN5CCC4CC5)N3)nc2c1` (stereo not drawn) [Example 59], which EC50 is on record?
**A.** < 100 nM

**Q.** With `CN1C(Nc2nc3ccccc3o2)=NCC12CN1CCC2CC1` (stereo not drawn) [Example 60] as the compound, how does the EC50 read?
**A.** 100 to 1000 nM

**Q.** Which EC50 does the source give for `c1cn(-c2cc(NC3=NCC4(CN5CCC4CC5)N3)ncn2)cn1` (stereo not drawn) [Example 61] here?
**A.** 100 to 1000 nM

**Q.** Which EC50 does the source give for `Cc1ccc2nc(NC3=NCC4(CN5CCC4CC5)N3)oc2n1` (stereo not drawn) [Example 62, N-(3,5-Dihydro-1′-azaspiro[imidazole-4,3′-bicyclo[2.2.2]octane]-2-yl)-5-methyloxazolo[5,4-b]pyridin-2-amine] here?
**A.** 100 to 1000 nM

**Q.** With `Cc1ccc2nc(NC3=NCC4(CN5CCC4CC5)N3)sc2c1` (stereo not drawn) [Example 63, N-(3,5-dihydro-1′-azaspiro[imidazole-4,3′-bicyclo[2.2.2]octane]-2-yl)-6-methylbenzo[d]thiazol-2-amine] as the compound, how does the EC50 read?
**A.** 100 to 1000 nM

**Q.** With `Cc1ccc2c(NC3=NCC4(CN5CCC4CC5)N3)ncnn12` (stereo not drawn) [Example 64] as the compound, how does the EC50 read?
**A.** 100 to 1000 nM

**Q.** For `Clc1ccc2c(NC3=NCC4(CN5CCC4CC5)N3)ncnn12` (stereo not drawn) [Example 65, N-(7-Chloropyrrolo[1,2-f][1,2,4]triazin-4-yl)-3,5-dihydro-1′-azaspiro[imidazole-4,3′-bicyclo[2.2.2]octan]-2-amine], which EC50 is on record?
**A.** 100 to 1000 nM

**Q.** Which EC50 does the source give for `Brc1ccc2c(NC3=NCC4(CN5CCC4CC5)N3)ncnn12` (stereo not drawn) [Example 66] here?
**A.** 100 to 1000 nM

same assay, conditions: FLIPR α7-HI (EC50, nM), HEK 293 cells, Ca2+ flux; Table 2, activity class column

**Q.** With `COc1ccc2nc(NC3=NC4(CO3)CN3CCC4CC3)sc2c1` (stereo not drawn) [Example 67, N-(6-Methoxybenzo[d]thiazol-2-yl)-5H-1′-azaspiro[oxazole-4,3′-bicyclo[2.2.2]octan]-2-amine] as the compound, how does the EC50 read?
**A.** 1000 to 100000 nM

**Q.** With `c1ccc(-c2cnc(NC3=NC4(CO3)CN3CCC4CC3)s2)cc1` (stereo not drawn) [Example 68, N-(5-Phenylthiazol-2-yl)-5H-1′-azaspiro[oxazole-4,3′-bicyclo[2.2.2]octan]-2-amine] as the compound, how does the EC50 read?
**A.** 100 to 1000 nM

same assay, conditions: FLIPR α7-HI (EC50, nM), HEK 293 cells, Ca2+ flux; Table 3

**Q.** With `c1ccc(-c2cnc(NC3=NCCC4(CN5CCC4CC5)O3)s2)cc1` (stereo not drawn) [Example 71] as the compound, how does the EC50 read?
**A.** 87 nM

**Q.** With `c1csc(NC2=NCCC3(CN4CCC3CC4)O2)n1` (stereo not drawn) [Example 73] as the compound, how does the EC50 read?
**A.** 4530 nM

**Q.** `c1ccc2cc(NC3=NCCC4(CN5CCC4CC5)O3)ncc2c1` (stereo not drawn) [Example 76] was tested. Which EC50 did it give?
**A.** 264 nM

**Q.** How did the EC50 turn out when `COc1cc(NC2=NCCC3(CN4CCC3CC4)O2)ncn1` (stereo not drawn) [Example 80] was run?
**A.** 3650 nM

**Q.** `c1ccc2nc(NC3=NCCC4(CN5CCC4CC5)O3)ccc2c1` (stereo not drawn) [Example 86] was tested. Which EC50 did it give?
**A.** 1810 nM

same assay, conditions: FLIPR α7-HI (EC50, nM), HEK 293 cells, Ca2+ flux; Table 3, activity class

**Q.** With `COc1ccc2nc(NC3=NCCC4(CN5CCC4CC5)O3)sc2c1` (stereo not drawn) [Example 70, N-(6-Methoxybenzo[d]thiazol-2-yl)-4,5-dihydro-1′-azaspiro[[1,3]oxazine-6,3′-bicyclo[2.2.2]octan]-2-amine] as the compound, how does the EC50 read?
**A.** 100 to 1000 nM

**Q.** With `c1ccc(-c2cnc(NC3=NCCC4(CN5CCC4CC5)O3)s2)cc1` (stereo not drawn) [Example 71] as the compound, how does the EC50 read?
**A.** < 100 nM

**Q.** Which EC50 does the source give for `Clc1cnc(NC2=NCCC3(CN4CCC3CC4)O2)cn1` (stereo not drawn) [Example 72, N-(5-Chloropyrazin-2-yl)-4,5-dihydro-1′-azaspiro[[1,3]oxazine-6,3′-bicyclo[2.2.2]octan]-2-amine] here?
**A.** 1000 to 100000 nM

**Q.** For `c1csc(NC2=NCCC3(CN4CCC3CC4)O2)n1` (stereo not drawn) [Example 73], which EC50 is on record?
**A.** 1000 to 100000 nM

**Q.** Which EC50 does the source give for `c1ccc2sc(NC3=NCCC4(CN5CCC4CC5)O3)nc2c1` (stereo not drawn) [Example 74] here?
**A.** 100 to 1000 nM

**Q.** With `Clc1ccc(NC2=NCCC3(CN4CCC3CC4)O2)nc1` (stereo not drawn) [Example 75] as the compound, how does the EC50 read?
**A.** 1000 to 100000 nM

**Q.** With `c1ccc2cc(NC3=NCCC4(CN5CCC4CC5)O3)ncc2c1` (stereo not drawn) [Example 76] as the compound, how does the EC50 read?
**A.** 100 to 1000 nM

**Q.** Which EC50 does the source give for `Clc1cnc(NC2=NCCC3(CN4CCC3CC4)O2)nc1` (stereo not drawn) [Example 78] here?
**A.** 1000 to 100000 nM

**Q.** Which EC50 does the source give for `COc1ncc2nc(NC3=NCCC4(CN5CCC4CC5)O3)sc2n1` (stereo not drawn) [Example 79, N-(5-Methoxythiazolo[5,4-d]pyrimidin-2-yl)-4,5-dihydro-1′-azaspiro[[1,3]oxazine-6,3′-bicyclo[2.2.2]octan]-2-amine] here?
**A.** 1000 to 100000 nM

**Q.** With `COc1cc(NC2=NCCC3(CN4CCC3CC4)O2)ncn1` (stereo not drawn) [Example 80] as the compound, how does the EC50 read?
**A.** 1000 to 100000 nM

**Q.** With `Cc1nnc(NC2=NCCC3(CN4CCC3CC4)O2)nc1C` (stereo not drawn) [Example 81] as the compound, how does the EC50 read?
**A.** 1000 to 100000 nM

**Q.** `c1ccc2c(NC3=NCCC4(CN5CCC4CC5)O3)ncnc2c1` (stereo not drawn) [Example 82] was tested. Which EC50 did it give?
**A.** 100 to 1000 nM

**Q.** Which EC50 does the source give for `Clc1ccc(NC2=NCCC3(CN4CCC3CC4)O2)nn1` (stereo not drawn) [Example 83] here?
**A.** 1000 to 100000 nM

**Q.** Which EC50 does the source give for `c1ccc2nc(NC3=NCCC4(CN5CCC4CC5)O3)ncc2c1` (stereo not drawn) [Example 84] here?
**A.** 100 to 1000 nM

**Q.** Which EC50 does the source give for `c1ccc2nc(NC3=NCCC4(CN5CCC4CC5)O3)cnc2c1` (stereo not drawn) [Example 85] here?
**A.** 1000 to 100000 nM

**Q.** How did the EC50 turn out when `c1ccc2nc(NC3=NCCC4(CN5CCC4CC5)O3)ccc2c1` (stereo not drawn) [Example 86] was run?
**A.** 1000 to 100000 nM

**Q.** With `Brc1ccc2nc(NC3=NCCC4(CN5CCC4CC5)O3)sc2n1` (stereo not drawn) [Example 87] as the compound, how does the EC50 read?
**A.** 1000 to 100000 nM

same assay, conditions: FLIPR α7-HI (EC50, nM), HEK 293 cells, Ca2+ flux; Table 4, activity class

**Q.** `COc1ccc2nc(/N=C3\OC4(CN5CCC4CC5)CN3C)sc2c1` (stereo not drawn) [Example 89, (Z)-6-Methoxy-N-(3-methyl-1′-azaspiro[oxazolidine-5,3′-bicyclo[2.2.2]octane]-2-ylidene)benzo[d]thiazol-2-amine] was tested. Which EC50 did it give?
**A.** > 1e+06 nM

**Q.** `CN1CC2(CN3CCC2CC3)O/C1=N\c1ncc(-c2ccccc2)s1` (stereo not drawn) [Example 90, (Z)—N-(3-Methyl-1′-azaspiro[oxazolidine-5,3′-bicyclo[2.2.2]octane]-2-ylidene)-5-phenylthiazol-2-amine] was tested. Which EC50 did it give?
**A.** 100 to 1000 nM

**Q.** Which EC50 does the source give for `CN1CC2(CN3CCC2CC3)O/C1=N\c1cnc(Cl)cn1` (stereo not drawn) [Example 91, (Z)-5-Chloro-N-(3-methyl-1′-azaspiro[oxazolidine-5,3′-bicyclo[2.2.2]octane]-2-ylidene)pyrazin-2-amine] here?
**A.** 1000 to 100000 nM

same assay, conditions: HEK 293 cells, Ca2+ flux; Table 3, activity class; read-out: FLIPR α7-HI (EC50)

**Q.** For `c1ccc2[nH]c(NC3=NCCC4(CN5CCC4CC5)O3)nc2c1` (stereo not drawn) [Example 77], which EC50 is on record?
**A.** > 1e+06 nM

same assay, conditions: HEK 293 cells, Ca2+ flux; Table 3; read-out: FLIPR α7-HI (EC50)

**Q.** For `c1ccc2[nH]c(NC3=NCCC4(CN5CCC4CC5)O3)nc2c1` (stereo not drawn) [Example 77], which EC50 is on record?
**A.** > 100000 nM
